One assay concerns the target T1, TEC (Homo sapiens, UniProt P42680).
T1 sequence (P42680 1-631): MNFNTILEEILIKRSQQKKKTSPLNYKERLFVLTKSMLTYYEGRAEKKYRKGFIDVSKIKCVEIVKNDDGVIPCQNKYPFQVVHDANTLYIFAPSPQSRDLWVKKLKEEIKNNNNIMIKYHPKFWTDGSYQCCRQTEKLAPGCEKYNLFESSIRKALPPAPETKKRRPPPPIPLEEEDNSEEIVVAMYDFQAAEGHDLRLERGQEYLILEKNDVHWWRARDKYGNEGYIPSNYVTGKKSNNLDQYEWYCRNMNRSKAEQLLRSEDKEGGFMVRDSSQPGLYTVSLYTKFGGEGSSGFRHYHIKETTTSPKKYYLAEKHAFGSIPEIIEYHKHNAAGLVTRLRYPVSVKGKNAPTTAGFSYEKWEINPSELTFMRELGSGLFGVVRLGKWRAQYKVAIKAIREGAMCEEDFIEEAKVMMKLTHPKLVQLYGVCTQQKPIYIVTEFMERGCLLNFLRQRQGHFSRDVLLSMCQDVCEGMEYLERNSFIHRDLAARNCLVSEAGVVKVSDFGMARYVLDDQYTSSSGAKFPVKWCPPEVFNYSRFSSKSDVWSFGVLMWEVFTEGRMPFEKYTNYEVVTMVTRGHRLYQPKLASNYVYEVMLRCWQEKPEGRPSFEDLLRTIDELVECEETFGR
As to the kind of experiment: Inhibition of a panel of kinases, in vitro HotSpot kinase assay: TEC. Type of assay: biochemical. The procedure: The degree of inhibition of a panel of kinases is determined using the in vitro HotSpot kinase assay (purified enzymes, ^33P-ATP, an appropriate substrate and 1 μM ATP).

Another assay deals with T2, BTK-WT (Homo sapiens, UniProt Q06187).
T2 construct: purified from insect cells as a full-length construct containing an N-terminal 6X-His tag; His6 (N); made in house; host or cells: insect cells (baculovirus Sf21 in Method B)
T2 sequence (Q06187 whole entry): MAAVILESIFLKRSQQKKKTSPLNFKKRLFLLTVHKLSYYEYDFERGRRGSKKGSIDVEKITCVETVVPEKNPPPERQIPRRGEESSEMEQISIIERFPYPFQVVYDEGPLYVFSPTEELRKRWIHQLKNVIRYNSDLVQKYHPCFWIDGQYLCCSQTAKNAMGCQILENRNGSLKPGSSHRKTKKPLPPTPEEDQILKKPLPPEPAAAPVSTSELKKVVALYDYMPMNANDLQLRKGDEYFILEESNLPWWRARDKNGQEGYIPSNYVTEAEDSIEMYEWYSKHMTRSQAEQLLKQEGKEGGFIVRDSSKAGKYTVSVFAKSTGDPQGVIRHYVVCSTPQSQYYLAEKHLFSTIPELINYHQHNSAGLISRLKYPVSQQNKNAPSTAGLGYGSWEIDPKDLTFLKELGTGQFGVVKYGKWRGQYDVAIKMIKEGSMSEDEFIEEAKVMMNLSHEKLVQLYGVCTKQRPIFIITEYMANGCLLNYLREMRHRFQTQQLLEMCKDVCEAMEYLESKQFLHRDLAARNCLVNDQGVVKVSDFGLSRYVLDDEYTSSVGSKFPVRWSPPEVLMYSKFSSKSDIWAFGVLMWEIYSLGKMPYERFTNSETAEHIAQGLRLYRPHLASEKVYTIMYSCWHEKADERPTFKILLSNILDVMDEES
As to the kind of experiment: Btk in vitro inhibitory activity (one of Method A TR-FRET, Method B electrophoretic mobility shift, Method C radiometric filter binding). Type of assay: biochemical. Conditions: read-out: IC50 BTK-WT. (A gel shift assay detects complexes by their altered migration in electrophoresis.)

Setting [1] is: Table 13, A compounds, 1 μM ATP.

Where two headings read alike, the source gives them in different places. Where only a bound is given, the exact number is not on record here.

The term IC50 denotes the concentration that inhibits the measured activity by half. Take `C=CC(=O)N[C@@H]1CCCN(c2nnc(C(N)=O)c(Nc3ccc(C4(C)CCN(C5CC5)CC4)cc3)n2)[C@@H]1C` [Example E-2, 3-((2R,3R)-3-acrylamido-2-methylpiperidin-1-yl)-5-((4-(1-cyclopropyl-4-methylpiperidin-4-yl)phenyl)amino)-1,2,4-triazine-6-carboxamide]: the IC50 was no more than 10 nM against TEC (E compounds, Table 17) and no more than 10 nM at BTK-WT (E compounds, Table 17).

Turning to `C=CC(=O)N1CCC[C@@H](N(C)c2cnc(C(N)=O)c(Nc3ccc(C4CCN(C5CCCC5)CC4)cc3)n2)C1` [Example E-125, (R)-5-((1-acryloylpiperidin-3-yl)(methyl)amino)-3-(4-(1-cyclopentylpiperidin-4-yl)phenylamino)pyrazine-2-carboxamide], the IC50 against TEC (E compounds, Table 17) was no more than 10 nM; at BTK-WT (E compounds, Table 17) it was no more than 10 nM.

On to `C[C@@H]1[C@H](NC(=O)c2ccc(C3CC3)cc2F)CCCN1c1cnc(C(N)=O)c(Nc2ccc(N3CCN(C)CC3)c(F)c2)n1` [Example A-171, 5-[(2R,3R)-3-(4-cyclopropyl-2-fluorobenzamido)-2-methylpiperidin-1-yl]-3-{[3-fluoro-4-(4-methylpiperazin-1-yl)phenyl]amino}pyrazine-2-carboxamide], for which the IC50 is 10 to 100 nM against TEC (setting [1]) and no more than 10 nM at BTK-WT (Table 13, A compounds).

`Cn1cc(Nc2nc(N3CCC4CCN(C(=O)c5ccc(C6CC6)cc5)C4C3)cnc2C(N)=O)cn1` (stereo not shown) [Example E-141, 5-(1-(4-cyclopropylbenzoyl)octahydro-6H-pyrrolo[2,3-c]pyridin-6-yl)-3-((1-methyl-3H-pyrazol-4-yl)amino)pyrazine-2-carboxamide]: the half-inhibitory concentration (IC50) at TEC (E compounds, Table 17) lay in the range of 100 to 1000 nM; on BTK-WT (E compounds, Table 17) it was 100 to 1000 nM.

Regarding `Cc1cc(C(=O)N[C@@H]2CCCN(c3cnc(C(N)=O)c(Nc4cnn(C)c4)n3)[C@@H]2C)ccc1C(C)(C)O` [Example E-152, 5-((2R,3R)-3-(4-(2-hydroxypropan-2-yl)-3-methylbenzamido)-2-methylpiperidin-1-yl)-3-((1-methyl-1H-pyrazol-4-yl)amino)pyrazine-2-carboxamide], the concentration for half-maximal inhibition (IC50) against TEC (E compounds, Table 17) was no more than 10 nM; on BTK-WT (E compounds, Table 17) it was no more than 10 nM.

`C[C@@H]1[C@H](NC(=O)c2ccc(C3CC3)cc2)CCCN1c1cnc(C(N)=O)c(Nc2ccc(N3CCN(C4CCCC4)C[C@@H]3C)cc2)n1` [Example E-137, 3-((4-((S)-4-cyclopentyl-2-methylpiperazin-1-yl)phenyl)amino)-5-((2R,3R)-3-(4-cyclopropylbenzamido)-2-methyipiperidin-1-yl)pyrazine-2-carboxamide]: the half-inhibitory concentration (IC50) at TEC (E compounds, Table 17) is 10 to 100 nM; at BTK-WT (E compounds, Table 17), no more than 10 nM.

Take `COCCN(C)Cc1cc(Nc2nc(N3CCC[C@@H](NC(=O)c4ccc(C5CC5)cc4)[C@H]3C)cnc2C(N)=O)sn1` [Example A-185, 5-((2R,3R)-3-(4-cyclopropylbenzamido)-2-methylpiperidin-1-yl)-3-(3-(((2-methoxyethyl)(meth-yl)amino)meth-yl)isothiazol-5-ylamino)pyr-azine-2-carboxamide]: the IC50 against TEC (setting [1]) is 100 to 1000 nM; at BTK-WT (Table 13, A compounds), no more than 10 nM.

Take `Cc1cc(Nc2nc(N3CC[C@H](O)[C@@H](N4CCC[C@@H](Nc5cc(Cl)cc(C(F)(F)F)c5)C4=O)C3)nnc2C(N)=O)sn1` [Example E-10, 3-((3R,3'S,4'S)-3-(3-chloro-5-(trifluoromethyl)phenylamino)-4′-hydroxy-2-oxo-1,3′-bipiperidin-1-yl)-5-(3-methylisothiazol-5-ylamino)-1,2,4-triazine-6-carboxamide]: the half-maximal inhibitory concentration (IC50) at TEC (E compounds, Table 17) is 10 to 100 nM; on BTK-WT (E compounds, Table 17), no more than 10 nM.

For `COCCn1cc(Nc2nc(N3CCC[C@@H](NC(=O)c4ccc(C5CC5)cc4)[C@H]3C)cnc2C(N)=O)cn1` [Example A-186, 5-((2R,3R)-3-(4-cyclopropylbenzamido)-2-methylpiperidin-1-yl)-3-(1-(2-methoxylethyl)-1H-pyrazol-4-ylamino)pyrazine-2-carboxamide], the 50% inhibitory concentration (IC50) at TEC (setting [1]) is 100 to 1000 nM; at BTK-WT (Table 13, A compounds), no more than 10 nM.

Turning to `C[C@@H]1[C@H](n2ccc3cc(C4CC4)ccc3c2=O)CCCN1c1cnc(C(N)=O)c(Nc2ccc(N3CCN(C)CC3)cc2)n1` [Example A-140, 5-[(2R,3R)-3-(6-cyclopropyl-1-oxo-1,2-dihydro-isoquinolin-2-yl)-2-methylpiperidin-1-yl]-3-{[4-(4-methylpiperazin-1-yl)phenyl]amino}pyrazine-2-carboxamide], the IC50 is 10 to 100 nM at TEC (setting [1]) and no more than 10 nM on BTK-WT (Table 13, A compounds).

`CN1CCN(C(=O)c2ccc(Nc3nc(N4CCC[C@@H](n5ccc6cc(C7CC7)ccc6c5=O)C4)cnc3C(N)=O)cc2)CC1` [Example A-115, 5-[(3R)-3-(6-cyclo-propyl-1-oxo-1,2-dihydroisoquinolin-2-yl)piperidin-1-yl]-3-{[4-(4-methylpiperazine-1-carbonyl)phenyl]amino}pyr-azine-2-carboxamide]: the half-maximal inhibitory concentration (IC50) against TEC (setting [1]) is 10 to 100 nM; at BTK-WT (Table 13, A compounds), no more than 10 nM.

In the case of `CC(C)N1CCN(c2ccc(Nc3nc(N4CCC[C@@H](NC(=O)c5ccc(C6CC6)cc5F)[C@H]4C)cnc3C(N)=O)cc2)CC1` [Example A-149, 5-[(2R,3R)-3-(4-cyclopropyl-2-fluorobenzamido)-2-methylpiperidin-1-yl]-3-({4-[4-(propan-2-yl)piperazin-1-yl]phenyl}amino)pyrazine-2-carboxamide], the IC50 was 10 to 100 nM at TEC (setting [1]) and no more than 10 nM at BTK-WT (Table 13, A compounds).

As to `C=CC(=O)N1CCC[C@@H](Nc2nnc(C(N)=O)c(Nc3ccc(C4(C)CCN(C5CC5)CC4)cc3)n2)[C@H]1C` [Example E-127, 3-(((2R,3R)-1-acryloyl-2-methylpiperidin-3-yl)amino)-5-((4-(1-cyclopropyl-4-methylpiperidin-4-yl)phenyl)amino)-1,2,4-triazine-6-carboxamide], the IC50 against TEC (E compounds, Table 17) is no more than 10 nM; on BTK-WT (E compounds, Table 17), no more than 10 nM.

As to `C[C@@H]1[C@H](NC(=O)c2ccc(C3CC3)cc2)CCCN1c1cnc(C(N)=O)c(Nc2ccc(OC3CCN(C)C3)cc2)n1` (stereo partly drawn) [Example E-136, 5-((2R,3R)-3-(4-cyclopropylbenzamido)-2-methylpiperidin-1-yl)-3-((4-((1-methylpyrrolidin-3-yl)oxy)phenyl)amino) pyrazine-2-carboxamide], the 50% inhibitory concentration (IC50) against TEC (E compounds, Table 17) is no more than 10 nM; on BTK-WT (E compounds, Table 17) it was no more than 10 nM.

In the case of `C=CC(=O)N[C@@H]1CCCN(c2cnc(C(N)=O)c(Nc3cc(C)ns3)n2)[C@@H]1C` [Example E-97, 5-((2R,3R)-3-acrylamido-2-methylpiperidin-1-yl)-3-(3-methylisothiazol-5-ylamino)pyrazine-2-carboxamide], the concentration for half-maximal inhibition (IC50) is no more than 10 nM against TEC (E compounds, Table 17) and no more than 10 nM at BTK-WT (E compounds, Table 17).

On to `C=CC(=O)N[C@@H]1CCCN(c2cnc(C(N)=O)c(Nc3ccc(C4CCN(C5CC5)CC4)cc3)n2)[C@@H]1C` [Example E-93, 5-((2R,3R)-3-acrylamido-2-methylpiperidin-1-yl)-3-(4-(1-cyclopropylpiperidin-4-yl)phenylamino)pyrazine-2-carboxamide], for which the concentration for half-maximal inhibition (IC50) was no more than 10 nM on TEC (E compounds, Table 17) and no more than 10 nM at BTK-WT (E compounds, Table 17).

Regarding `C[C@@H]1[C@H](NC(=O)c2ccc(C3CC3)cc2F)CCCN1c1cnc(C(N)=O)c(Nc2ccc(N3CCN(C)C[C@@H]3C)cc2)n1` [Example A-176, 5-[(2R,3R)-3-(4-cyclopropyl-2-fluorobenzamido)-2-methylpiperidin-1-yl]-3-({4-[(2S)-2,4-dimethylpiperazin-1-yl]phenyl}amino)pyrazine-2-carboxamide], the IC50 against TEC (setting [1]) is 10 to 100 nM; on BTK-WT (Table 13, A compounds) it was no more than 10 nM.

With `CC1(c2ccc(Nc3nc(N4CCC[C@@H](n5ccc6cc(C7CC7)ccc6c5=O)C4)cnc3C(N)=O)cc2)CCN(C2CCCC2)CC1` [Example A-141, 3-{[4-(1-cyclopentyl-4-methylpiperidin-4-yl)phenyl]amino}-5-[(3R)-3-(6-cyclopropyl-1-oxo-1,2-dihydroisoquinolin-2-yl)piperidin-1-yl]pyrazine-2-carboxamide], the concentration for half-maximal inhibition (IC50) on TEC (setting [1]) is no more than 10 nM; at BTK-WT (Table 13, A compounds), no more than 10 nM.

Regarding `C[C@@H]1[C@H](NC(=O)c2ccc(C3CC3)cc2F)CCCN1c1cnc(C(N)=O)c(Nc2cc(CN3CCOCC3)ns2)n1` [Example A-128, 5-[(2R,3R)-3-(4-cyclopropyl-2-fluorobenzamido)-2-methylpiperidin-1-yl]-3-{[3-(morpholin-4-ylmethyl)-1,2-thiazol-5-yl]amino}pyrazine-2-carboxamide], the IC50 is 10 to 100 nM against TEC (setting [1]) and no more than 10 nM on BTK-WT (Table 13, A compounds).

As for `Cn1cc(Nc2nc(N3CCC[C@@H](n4ccc5cc(C6CC6)ccc5c4=O)C3)cnc2C(N)=O)cn1` [Example A-167, 5-[(3R)-3-(6-cyclopropyl-1-oxo-1,2-dihydroisoquinolin-2-yl)piperidin-1-yl]-3-[(1-methyl-1H-pyrazol-4-yl)amino]pyrazine-2-carboxamide], the half-inhibitory concentration (IC50) is 10 to 100 nM against TEC (setting [1]) and no more than 10 nM on BTK-WT (Table 13, A compounds).
